Data on four molecules can be found in publication PMC7922564, “Molecular Insights into an Antibiotic Enhancer Action of New Morpholine-Containing 5-Arylideneimidazolones in the Fight against MDR Bacteria” (International Journal of Molecular Sciences, 2021).

Structures are written as SMILES. Converted amounts (≈) assume the structure as drawn.

In series [1] the target is CYP3A4 (Homo sapiens, UniProt P08684). In words: Luminescent CYP3A4 P450-Glo assay. On the procedure:
The luminescent CYP3A4 P450-Glo™ assay was carried out according to a protocol described previously (Promega, Madison, WI, USA). […] Performance of enzymatic reaction was carried out in white polystyrene, flat-bottom Nunc™ MicroWell™ 96-Well Microplate (Thermo Scientific Waltham, MA, USA) and the result was measured with a microplate reader EnSpire in luminescence mode (PerkinElmer, Waltham, MA USA). IC50 values were calculated using GraphPad Prism™ software (version 5.01, San Diego, CA, USA). Compounds 15 and 19 were tested at concentrations from 0.01 μM to 25 μM.

Series [2] has as its system S. aureus Mu50. In words: MIC of compounds, S. aureus Mu50. The series is classed as cell-based. As to conditions: Staphylococcus aureus; Mu50 (VISA). As for the experimental part: Compounds 14–16 were tested further for their adjuvant-like effect with a set of ten additional S. aureus isolates. Firstly, MIC values of the molecules were evaluated in two clinical MSSA isolates (MM-O058, MM-N072), seven MRSA (USA300 LAC, 5328, LG-N017, MM-O021, R45-CC45, R46-CC22, COL) and one VISA strain (Mu50). Detailed results are presented in the Supplementary section (Table S3). […]
Initially, MICs of a series of imidazolone derivatives were assessed against susceptible (reference) and MDR strains of staphylococci. Next, MIC values of the aforementioned antibiotics were determined in the absence and presence of imidazolone derivatives to assess the chemosensitizing effect of these compounds. […] Antibacterial activity of compounds and antibiotics ampicillin, vancomycin, ciprofloxacin, and erythromycin was recorded as the lowest concentration of molecules able to inhibit bacterial growth after 18 h incubation at 37 °C. […] The results are presented as activity gain (A) parameter which was calculated as ratio of MIC of a certain antibiotic (MICAnt) to its MICAnt+Comp, observed in combination with a tested compound (7, 12–16, 19, or 20; Equation (1)). […]

Series [3] is described as follows: Stability in acidic and basic conditions (TLC). It is filed as physicochemical. Conditions: for Number of TLC spots: 1 = stable. On the procedure: Compounds 9–12, 15, and 19 were also tested for their stability in acidic and basic conditions. This assay was carried out for 48 h and samples were taken at six-time intervals (10 min, 1 h, 2 h, 3 h, 24 h, 48 h). Stability of the compounds was determined using the TLC method. […] In basic conditions, only compounds 10 and 15 were stable for 24 h. […] Results with details, including time of degradation of products obtained, are presented in the Supplementary (Tables S19 and S20). […]
VI. Stability in different pH conditions
Stability of chosen compounds (9-12, 15, and 19) were determined using the TLC method. Assays were performed in acidic and basic conditions and were carried out for 48 h. Samples were taken at six-time intervals (10 min., 1 h, 2 h, 3 h, 24 h, 48 h). […]
of spots observed on TLC, where 1 indicate that compound is stable (only TLC spot for proper compound was observed). Higher values point out how many products of degradation was observed, which can be calculating by subtracting one from number of spots.
Table S19. Results of chosen compounds (9-12, 15, 19) stability in acidic conditions.
Compound Number of TLC spots in defined time
Table S20. Results of chosen compounds (9-12, 15, 19) stability in basic conditions.

Series [4] deals with K. aerogenes Ea-289. Further details: method as in earlier work. Conditions: doxycycline, chloramphenicol, norfloxacin, already published, cited from earlier work.
In series [5] the test system is K. aerogenes Ea-294, Ea-308. Further details: method as in earlier work. Conditions: doxycycline, chloramphenicol, norfloxacin, already published, cited from earlier work.
In series [6] the test system is AcrAB-TolC efflux pump in K. aerogenes strain Ea-289. The arrangement: method as in PMID 30691112. As to conditions: compound 100 µM; previously described; cited from earlier work.
Series [7] has as its system S. aureus ATCC 25923. The arrangement: method as in earlier work. As to conditions: unstarred value; published previously; cited from earlier work.
Series [8] concerns S. aureus ATCC 25923. The arrangement: method as in earlier work. As to conditions: published previously, cited from earlier work.
In series [9] the test system is K. aerogenes CM-64. The arrangement: method as in earlier work. As to conditions: doxycycline, chloramphenicol, norfloxacin, already published, cited from earlier work.

Sequence of CYP3A4 (P08684 whole entry): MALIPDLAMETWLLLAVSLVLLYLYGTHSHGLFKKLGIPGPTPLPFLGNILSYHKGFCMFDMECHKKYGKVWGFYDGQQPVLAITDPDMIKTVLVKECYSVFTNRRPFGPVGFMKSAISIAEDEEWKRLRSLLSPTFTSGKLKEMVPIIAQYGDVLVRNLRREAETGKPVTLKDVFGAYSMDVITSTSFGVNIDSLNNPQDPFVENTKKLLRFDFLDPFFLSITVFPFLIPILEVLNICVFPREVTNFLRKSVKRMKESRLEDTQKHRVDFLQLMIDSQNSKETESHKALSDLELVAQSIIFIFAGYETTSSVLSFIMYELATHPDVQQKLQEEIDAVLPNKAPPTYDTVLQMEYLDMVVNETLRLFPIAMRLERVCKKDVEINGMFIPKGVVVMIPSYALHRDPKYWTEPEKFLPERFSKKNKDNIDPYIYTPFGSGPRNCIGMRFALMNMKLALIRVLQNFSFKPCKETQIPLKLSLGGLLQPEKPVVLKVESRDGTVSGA

With `NC1=N/C(=C\c2ccc(-c3ccccc3)cc2)C(=O)N1CCCN1CCOCC1` [Compound 15], in series [1], the half-inhibitory concentration (IC50) was greater than 25 µM. Also, the inhibition at 25 µM in series [1] (human) is less than 50%. For the same molecule, the MIC in series [2] turned out to be 250 µM. Further, the “Number of TLC spots” value in series [3] (acidic conditions, 10 min) is on record as 2; in series [3] (acidic conditions, 1 h), 2; in series [3] (acidic conditions, 2 h), 2; in [3] (acidic conditions, 3 h), 2; in series [3] (acidic conditions, 24 h), 2; in series [3] (acidic conditions, 48 h), 2. Moreover, the “Number of TLC spots” value in [3] (basic conditions, 10 min) came out at 1; in series [3] (basic conditions, 1 h) it was 1; in series [3] (basic conditions, 2 h), 1; in series [3] (basic conditions, 3 h) it was 1; in series [3] (basic conditions, 24 h), 1; in series [3] (basic conditions, 48 h) it was 2. Also, the time stable in [3] (basic conditions) was determined as 24 h.
In the case of `NC1=N/C(=C\c2ccc(-c3ccccc3)cc2)C(=O)N1CCN1CCOCC1` [Compound 14], the MIC in series [2] was no less than 500 µM.
In [1], `NC1=N/C(=C\c2ccc3c(c2)Cc2ccccc2-3)C(=O)N1CCCN1CCOCC1` [Compound 19] had an IC50 of 24.9 µM. For the same molecule, the “Number of TLC spots” value in series [3] (acidic conditions, 10 min) worked out at 1; in [3] (acidic conditions, 1 h), 1; in series [3] (acidic conditions, 2 h), 1; in series [3] (acidic conditions, 3 h), 2; in series [3] (acidic conditions, 24 h), 2; in series [3] (acidic conditions, 48 h) it was 3. Further, the “Number of TLC spots” value in series [3] (basic conditions, 10 min) worked out at 4; in [3] (basic conditions, 1 h) it was 4; in series [3] (basic conditions, 2 h), 4; in [3] (basic conditions, 3 h), 4; in [3] (basic conditions, 24 h) it was 4; in series [3] (basic conditions, 48 h), 4.
`NC1=N/C(=C\c2cccc(Oc3ccccc3)c2)C(=O)N1CCCN1CCOCC1` [Compound 16]: the MIC reduction entry in series [4] (erythromycin + compound), in [5] (erythromycin + compound), in [8] (oxacillin alone to oxacillin + compound) and in [9] (erythromycin + compound) was “No effect” each time. Also, the “A (activity gain)” value in [4] (erythromycin), in [5] (erythromycin), in series [8] (oxacillin) and in series [9] (erythromycin) was 1 in each case. For the same molecule, the “Inhibition efficiency (IE) towards extrusion of 1,2'-dNA” value in [6] is 61%. Besides, in series [7], the MIC value is 125 µM (≈ 50.8 µg/mL).
